Among the data in patent publication US20220046923A1, “HERBICIDAL CINNOLINIUM COMPOUNDS” (SYNGENTA CROP PROTECTION AG, priority 2018, published 2022) are pest or weed control values, retold here.

Holding throughout (assay): Post-emergence efficacy, glasshouse spray test
Format in all cases: in vivo

Assay [1] relates to Chenopodium album (CHEAL). The note with it: Chenopodium album, post-emergence, 312 h, evaluated after 13 days, read-out: Control of weed species CHEAL after post-emergence application (100=total damage to plant; 0=no damage to plant); for pest or weed control at 1000 g/ha: application rate 1000 g/Ha; for pest or weed control at 500 g/ha: application rate 500 g/Ha. The protocol:
(§1) Seeds of a variety of test species were sown in standard soil in pots. After cultivation for 14 days (post-emergence) under controlled conditions in a glasshouse (at 24/16° C., day/night; 14 hours light; 65% humidity), the plants were sprayed with an aqueous spray solution derived from the dissolution of the technical active ingredient formula (I) in a small amount of acetone and a special solvent and emulsifier mixture referred to as IF50 (11.12% Emulsogen EL360 TM+44.44% N-methylpyrrolidone+44.44% Dowanol DPM glycol ether), to create a 50 g/l solution which was then diluted to required concentration using 0.25% or 1% Empicol ESC70 (Sodium lauryl ether sulphate)+1% ammonium sulphate as diluent. The test plants were then grown in a glasshouse under controlled conditions (at 24/16° C., day/night; 14 hours light; 65% humidity) and watered twice daily. After 13 days the test was evaluated (100=total damage to plant; 0=no damage to plant).
(§2) Ipomoea hederacea (IPOHE), Euphorbia heterophylla (EPHHL), Chenopodium album (CHEAL), Amaranthus palmeri (AMAPA), Lolium perenne (LOLPE), Digitaria sanguinalis (DIGSA), Eleusine indica (ELEIN), Echinochloa crus-galli (ECHCG), Setaria faberi (SETFA)

The test system of assay [2] is Digitaria sanguinalis (DIGSA). The note with it: Digitaria sanguinalis, post-emergence, 312 h, evaluated after 13 days, read-out: Control of weed species DIGSA after post-emergence application (100=total damage to plant; 0=no damage to plant); for pest or weed control at 1000 g/ha: application rate 1000 g/Ha; for pest or weed control at 500 g/ha: application rate 500 g/Ha. The protocol: as §1, §2

Assay [3] deals with Echinochloa crus-galli (ECHCG). The note with it: Echinochloa crus-galli, post-emergence, 312 h, evaluated after 13 days, read-out: Control of weed species ECHCG after post-emergence application (100=total damage to plant; 0=no damage to plant); for pest or weed control at 1000 g/ha: application rate 1000 g/Ha; for pest or weed control at 500 g/ha: application rate 500 g/Ha. The protocol:
as §1, §2

The test system of a further assay is Eleusine indica (ELEIN). The note with it: Eleusine indica, post-emergence, 312 h, evaluated after 13 days, read-out: Control of weed species ELEIN after post-emergence application (100=total damage to plant; 0=no damage to plant); for pest or weed control at 1000 g/ha: application rate 1000 g/Ha; for pest or weed control at 500 g/ha: application rate 500 g/Ha. The protocol: as §1, §2

The test system of assay [4] is Euphorbia heterophylla (EPHHL). The note with it: Euphorbia heterophylla, post-emergence, 312 h, evaluated after 13 days, read-out: Control of weed species EPHHL after post-emergence application (100=total damage to plant; 0=no damage to plant); for pest or weed control at 1000 g/ha: application rate 1000 g/Ha; for pest or weed control at 500 g/ha: application rate 500 g/Ha. Here is the method: as §1, §2

For assay [5], the system named is Ipomoea hederacea (IPOHE). The note with it: Ipomoea hederacea, post-emergence, 312 h, evaluated after 13 days, read-out: Control of weed species IPOHE after post-emergence application (100=total damage to plant; 0=no damage to plant); for pest or weed control at 1000 g/ha: application rate 1000 g/Ha; for pest or weed control at 500 g/ha: application rate 500 g/Ha. The protocol:
as §1, §2

Another assay concerns Lolium perenne (LOLPE). The note with it: Lolium perenne, post-emergence, 312 h, evaluated after 13 days, read-out: Control of weed species LOLPE after post-emergence application (100=total damage to plant; 0=no damage to plant); for pest or weed control at 1000 g/ha: application rate 1000 g/Ha; for pest or weed control at 500 g/ha: application rate 500 g/Ha. The protocol: as §1, §2

A further assay relates to Setaria faberi (SETFA). The note with it: Setaria faberi, post-emergence, 312 h, evaluated after 13 days, read-out: Control of weed species SETFA after post-emergence application (100=total damage to plant; 0=no damage to plant); for pest or weed control at 1000 g/ha: application rate 1000 g/Ha; for pest or weed control at 500 g/ha: application rate 500 g/Ha. The protocol:
as §1, §2

Turning to `Cc1ccc2n[n+](CCS(=O)(=O)[O-])cc(C)c2c1` [Compound A33], the pest or weed control at 1000 g/ha in assay [1] is 10%; in assay [2], 40%; in assay [3] it was 50%; in the assay on Eleusine indica (ELEIN) it was 30%; in assay [4], 60%; in assay [5], 30%. Moreover, the pest or weed control at 1000 g/ha was 0% in the assay with Lolium perenne (LOLPE) and 40% in the assay with Setaria faberi (SETFA).

On to `O=S(=O)([O-])CC[n+]1ccc2cc(Br)ccc2n1` [Compound A34], for which the pest or weed control at 1000 g/ha in assay [1] was 20%; in assay [2], 40%; in assay [3], 40%; in the assay on Eleusine indica (ELEIN), 30%; in assay [4] it was 40%; in assay [5] it was 20%. Moreover, the pest or weed control at 1000 g/ha was 10% in the assay on Lolium perenne (LOLPE) and 20% with Setaria faberi (SETFA).

As for `CC(=O)Nc1ccc2n[n+](CCS(=O)(=O)[O-])ccc2c1` [Compound A104], the pest or weed control at 125 g/ha in assay [1] (application rate 125 g/Ha) turned out to be 30%; in assay [2] (application rate 125 g/Ha), 60%; in assay [3] (application rate 125 g/Ha) it was 60%; in the assay with Eleusine indica (ELEIN) (application rate 125 g/Ha) it was 80%; in assay [4] (application rate 125 g/Ha), 50%; in assay [5] (application rate 125 g/Ha) it was 10%. Besides, the pest or weed control at 125 g/ha with Lolium perenne (LOLPE) (application rate 125 g/Ha) was 20%; in the assay on Setaria faberi (SETFA) (application rate 125 g/Ha), 70%.

As for `Cc1c[n+](CCS(=O)(=O)[O-])nc2c(C)cccc12` [Compound A35], the pest or weed control at 1000 g/ha in assay [1] turned out to be 0%; in assay [2], 30%; in assay [3], 20%; in the assay on Eleusine indica (ELEIN) it was 20%; in assay [4] it was 30%; in assay [5] it was 20%. The pest or weed control at 1000 g/ha amounted to 10% with Lolium perenne (LOLPE) and 0% with Setaria faberi (SETFA).

For the compound `O=C(O)c1cccc(C[n+]2ccc3ccccc3n2)c1` [Compound A91], the pest or weed control at 1000 g/ha in assay [1] came to 20%; in assay [2], 20%; in assay [3], 40%; in the assay with Eleusine indica (ELEIN) it was 20%; in assay [4] it was 40%; in assay [5] it was 10%. Further, the pest or weed control at 1000 g/ha is 10% in the assay with Lolium perenne (LOLPE) and 20% with Setaria faberi (SETFA).

As for `CN(C)C(=O)c1ccc2cc[n+](CCS(=O)(=O)[O-])nc2c1` [Compound A106], the pest or weed control at 500 g/ha turned out to be 80% in assay [1]; 70% in assay [2]; 80% in assay [3]; 100% with Eleusine indica (ELEIN); 30% in assay [4]; 20% in assay [5]. Also, the pest or weed control at 500 g/ha in the assay on Lolium perenne (LOLPE) turned out to be 30%; in the assay with Setaria faberi (SETFA), 100%.

Turning to `CC(=O)Nc1ccc2cc[n+](CCS(=O)(=O)[O-])nc2c1` [Compound A105], the pest or weed control at 500 g/ha is 70% in assay [1]; 60% in assay [2]; 50% in assay [3]; 80% with Eleusine indica (ELEIN); 30% in assay [4]; 20% in assay [5]. For the same compound, the pest or weed control at 500 g/ha came out at 20% in the assay on Lolium perenne (LOLPE) and 70% in the assay on Setaria faberi (SETFA).

As to `CN(C)C(=O)c1ccc2n[n+](CCS(=O)(=O)[O-])ccc2c1` [Compound A101], the pest or weed control at 500 g/ha in assay [1] was found to be 60%; in assay [2] it was 70%; in assay [3], 60%; in the assay with Eleusine indica (ELEIN), 80%; in assay [4], 70%; in assay [5] it was 40%. Moreover, the pest or weed control at 500 g/ha in the assay on Lolium perenne (LOLPE) amounted to 20%; in the assay on Setaria faberi (SETFA), 70%.

Take `CN(C)C(=O)c1cccc2cc[n+](CCS(=O)(=O)[O-])nc12` [Compound A102, 2-[8-(dimethylcarbamoyl)cinnolin-2-ium-2-yl]ethanesulfonate]: the pest or weed control at 500 g/ha in assay [1] worked out at 100%; in assay [2], 80%; in assay [3] it was 70%; in the assay on Eleusine indica (ELEIN), 100%; in assay [4], 60%; in assay [5], 70%. Besides, the pest or weed control at 500 g/ha came to 30% with Lolium perenne (LOLPE) and 90% with Setaria faberi (SETFA).

Regarding `O=S(=O)(O)c1ccc(C[n+]2ccc3ccccc3n2)cc1` [Compound A92], the pest or weed control at 1000 g/ha in assay [1] stood at 0%; in assay [2], 20%; in assay [3], 30%; with Eleusine indica (ELEIN), 30%; in assay [4] it was 50%; in assay [5] it was 40%. The pest or weed control at 1000 g/ha in the assay with Lolium perenne (LOLPE) and in the assay on Setaria faberi (SETFA) was 10% in each case.

For `Cc1cccc2cc[n+](CCS(=O)(=O)[O-])nc12` [Compound A36], the pest or weed control at 1000 g/ha was 80% in assay [2]; 70% in assay [3]; 90% in the assay on Eleusine indica (ELEIN); 30% in assay [4]; 30% in assay [5]; 20% with Lolium perenne (LOLPE). The pest or weed control at 1000 g/ha in the assay with Setaria faberi (SETFA) worked out at 40%.
